According to patent US10077261B2, “Imidazolin-5-one derivative useful as FASN inhibitors for the treatment of cancer” (Janssen Pharmaceutica NV, priority 2012, dated 2018):

Experiments:
[1] = test system: PC-3M-Luc-C6 prostate cells; assay: In vitro PC-3M-Luc-C6 prostate cell proliferation assay in lipid reduced medium; assay type: cell-based; conditions: 96 h, read-out: pIC50 PC-3M-Luc-C6 prostate cell (converted)
Protocol: PC-3M-Luc-C6 prostate cells were obtained from Xenogen Corporation. Cells were maintained in MEM supplemented with 10% Fetal Calf Serum (FCS, Hyclone), 2 mM glutamine, 1 mM sodium pyruvate, 1% BME vitamins (available from for example, Sigma Aldrich), 0.1 mM non Essential Amino Acid and 50 μg/ml Gentamicin. The cells were passaged twice a week.
The next day 10 μl test compound/DMSO diluted in medium was added (3E-5M, 1E-5M, 3E-6M, 1E-6M, 3E-7M, 1E-7M, 3E-8M, 1E-8M final concentration). Compounds were tested in duplicate. After 96 h incubation at 37° C., 5% CO2 25 μl ATP-glow mix was added. The plate was incubated for 30 min at 37° C. and luminescence was measured with the Envision.
Analysis: Determination of pIC50 Values
pIC50 values were calculated as follows.
where mLC and mHC are the means of the low control wells and high control wells on the plate, after manual exclusion of outliers. The relation between the % Controlmin values and concentration was fitted to a 4-parameter logistic curve using a non-linear least squares regression method to determine the pIC50 value. Outlying data points were excluded manually to get a correct fit. The pIC50 corresponds to −log 10(IC50), if the IC50 is expressed in molar units (http://www.ncbi.nlm.nih.gov/books/NBK91994). The IC50 parameter was always determined by non-linear regression, but one or more of the other parameters may have been held fixed on a relevant input value, such as 0 for the bottom values.

[2] = test system: LNCaP-Vancouver prostate cells; assay: In vitro LNCaP Vancouver prostate cell proliferation assay in lipid reduced medium; assay type: cell-based; conditions: read-out: pIC50 LNCaP_Vancouver prostate cell (converted)
[3] = biological target: T1, hFASN enzyme (full length) (Homo sapiens, UniProt P49327); assay: Fatty Acid Synthase (FASN) inhibition scintillation proximity assay; assay type: biochemical; conditions: for inhibition at 10 µM: read-out: Human FASN % inhibition @ 10 μM, 10 μM test compound; for IC50: read-out: Human FASN pIC50 (converted)
T1 construct: 10 μL hFASN enzyme (full length, 300 ng, purified in house); made in house
How it was run: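 Purified full-length hFASN (300 ng) converts ^3H-acetyl-CoA plus malonyl-CoA to ^3H-palmitate in 100 mM KH2PO4 pH 7.5, 1 mM DTT; compounds tested at 0.01–30 μM. Product captured on streptavidin imaging beads and read by LEADseeker at 610 nm after ≥24 h; 4-parameter logistic fit versus controls.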

[4] = test system: A2780 ovarian cells; assay: A2780 ovarian cell proliferation assay in lipid reduced medium, with palmitate (MTT); assay type: cell-based; conditions: Homo sapiens, A2780, 96 h; read-out: pIC50 A2780 Ovarian Cell, With Palmitate (converted)
How it was run: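 Seeded cells were switched next day to lipid-reduced serum, exposed to compound and 25 μM palmitate complexed with fatty-acid-free BSA, and incubated 96 h. Proliferation was then determined by MTT absorbance at 544 nm, with a best-fit curve of signal against concentration.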

[5] = test system: A2780 ovarian cells; assay: A2780 ovarian cell proliferation assay in lipid reduced medium, without palmitate (MTT); assay type: cell-based; conditions: Homo sapiens, A2780, 96 h; read-out: pIC50 A2780 Ovarian Cell, Without Palmitate (converted)

T1 sequence (P49327 whole entry): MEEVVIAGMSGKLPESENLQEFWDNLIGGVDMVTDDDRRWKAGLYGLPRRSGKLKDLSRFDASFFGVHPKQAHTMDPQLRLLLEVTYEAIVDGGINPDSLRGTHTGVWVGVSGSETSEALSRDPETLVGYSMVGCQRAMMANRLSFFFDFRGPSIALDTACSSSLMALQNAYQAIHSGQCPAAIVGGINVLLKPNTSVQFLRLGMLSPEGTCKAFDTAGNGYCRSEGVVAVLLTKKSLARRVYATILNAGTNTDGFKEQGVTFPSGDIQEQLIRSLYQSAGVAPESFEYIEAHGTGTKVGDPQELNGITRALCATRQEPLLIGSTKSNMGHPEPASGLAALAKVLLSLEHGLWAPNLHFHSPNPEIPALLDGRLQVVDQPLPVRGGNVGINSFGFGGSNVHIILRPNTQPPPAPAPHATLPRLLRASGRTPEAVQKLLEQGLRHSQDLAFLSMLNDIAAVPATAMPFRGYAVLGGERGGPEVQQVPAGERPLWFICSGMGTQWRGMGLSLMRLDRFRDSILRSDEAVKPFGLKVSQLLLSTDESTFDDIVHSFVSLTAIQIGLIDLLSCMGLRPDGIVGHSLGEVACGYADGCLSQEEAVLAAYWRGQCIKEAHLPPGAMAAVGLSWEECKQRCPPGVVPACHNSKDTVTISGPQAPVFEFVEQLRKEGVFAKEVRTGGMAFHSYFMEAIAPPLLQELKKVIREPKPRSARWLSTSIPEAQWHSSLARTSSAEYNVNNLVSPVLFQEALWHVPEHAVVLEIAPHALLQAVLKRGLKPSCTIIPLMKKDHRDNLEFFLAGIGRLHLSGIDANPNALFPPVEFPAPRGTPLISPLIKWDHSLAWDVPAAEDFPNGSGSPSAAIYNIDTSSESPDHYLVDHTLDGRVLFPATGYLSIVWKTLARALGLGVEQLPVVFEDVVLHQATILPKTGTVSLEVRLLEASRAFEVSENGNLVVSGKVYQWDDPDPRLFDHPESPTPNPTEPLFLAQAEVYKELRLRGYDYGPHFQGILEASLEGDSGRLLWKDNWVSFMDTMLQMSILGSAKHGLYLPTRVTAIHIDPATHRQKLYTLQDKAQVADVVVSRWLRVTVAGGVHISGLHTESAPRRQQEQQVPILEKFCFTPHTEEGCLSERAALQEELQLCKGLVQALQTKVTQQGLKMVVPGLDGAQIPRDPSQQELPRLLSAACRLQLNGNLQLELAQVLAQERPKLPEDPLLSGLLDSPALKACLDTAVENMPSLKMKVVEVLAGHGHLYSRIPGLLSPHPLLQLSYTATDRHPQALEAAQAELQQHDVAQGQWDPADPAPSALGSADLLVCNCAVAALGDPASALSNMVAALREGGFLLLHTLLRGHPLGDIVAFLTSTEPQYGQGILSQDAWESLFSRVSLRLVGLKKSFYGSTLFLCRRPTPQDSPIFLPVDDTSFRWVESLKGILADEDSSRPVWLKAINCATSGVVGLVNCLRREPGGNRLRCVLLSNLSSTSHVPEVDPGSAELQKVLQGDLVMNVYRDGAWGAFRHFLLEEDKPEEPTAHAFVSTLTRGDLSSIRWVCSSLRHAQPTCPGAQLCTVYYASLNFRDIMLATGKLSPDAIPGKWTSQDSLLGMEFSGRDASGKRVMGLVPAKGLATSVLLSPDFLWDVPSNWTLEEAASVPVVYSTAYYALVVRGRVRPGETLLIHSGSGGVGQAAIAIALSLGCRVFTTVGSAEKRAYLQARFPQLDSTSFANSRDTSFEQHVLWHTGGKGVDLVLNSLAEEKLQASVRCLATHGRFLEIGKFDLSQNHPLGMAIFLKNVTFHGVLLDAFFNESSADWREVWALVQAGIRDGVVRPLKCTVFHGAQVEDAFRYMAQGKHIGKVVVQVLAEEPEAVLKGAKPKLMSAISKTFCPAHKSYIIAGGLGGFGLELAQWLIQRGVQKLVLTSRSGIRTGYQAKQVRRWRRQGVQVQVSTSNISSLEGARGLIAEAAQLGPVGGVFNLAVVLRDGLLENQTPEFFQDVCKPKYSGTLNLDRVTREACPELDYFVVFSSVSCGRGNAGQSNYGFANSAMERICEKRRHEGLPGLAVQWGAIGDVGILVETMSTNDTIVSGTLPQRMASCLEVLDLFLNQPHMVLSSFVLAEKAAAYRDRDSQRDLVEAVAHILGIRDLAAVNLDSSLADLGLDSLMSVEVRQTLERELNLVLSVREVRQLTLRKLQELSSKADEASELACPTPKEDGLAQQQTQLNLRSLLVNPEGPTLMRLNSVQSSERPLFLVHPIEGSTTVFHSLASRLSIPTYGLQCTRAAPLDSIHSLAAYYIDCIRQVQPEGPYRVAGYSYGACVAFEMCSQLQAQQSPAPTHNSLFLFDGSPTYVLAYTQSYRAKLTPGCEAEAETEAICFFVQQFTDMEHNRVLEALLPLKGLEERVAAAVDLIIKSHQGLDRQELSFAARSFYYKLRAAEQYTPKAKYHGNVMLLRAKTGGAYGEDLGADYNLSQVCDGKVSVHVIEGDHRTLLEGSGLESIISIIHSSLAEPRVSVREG

| IC50 [1] [nM] | IC50 [2] [nM] | inhibition at 10 µM [3] [%] | IC50 [4] [µM] | IC50 [5] [nM] | IC50 [3] [nM] | SMILES |
| --- | --- | --- | --- | --- | --- | --- |
| 34.7 | 263 | 109 | > 10 | 63.1 | – | Cc1cc(-c2ccc3cc[nH]c3c2)ccc1C1=NC2(CCCC2)C(=O)N1C[C@@H]1CCN(C(=O)C2CC2)C1 [compound 873, (R)-2-(4-(1H-indol-6-yl)-2-methylphenyl)-3-((1-(cyclopropanecarbonyl)pyrrolidin-3-yl)methyl)-1,3-diazaspiro[4.4]non-1-en-4-one] |
| 105 | 912 | 102 | 5.5 | 145 | – | Cc1cc(-c2cccc3c2cnn3C)ccc1C1=NC2(CC2)C(=O)N1CC1CN(C(=O)C2(C)CC2)C1 [compound 599, 6-({1-[(1-Methylcyclopropyl)carbonyl]azetidin-3-yl}methyl)-5-[2-methyl-4-(1-methyl-1H-indazol-4-yl)phenyl]-4,6-diazaspiro[2.4]hept-4-en-7-one] |
| 60.3 | 240 | 104 | 3.31 | ~20 | 53.7 | Cc1cc(-c2ccc3cc(F)ccc3c2)ccc1C1=NC2(CC2)C(=O)N1CC1CN(C(=O)C2CCO2)C1 (stereo not shown) [compound 223, 5-(4-(6-fluoronaphthalen-2-yl)-2-methylphenyl)-6-((1-(oxetan-2-carbonyl)azetidin-3-yl)methyl)-4,6-diazaspiro[2.4]hept-4-en-7-one] |
| 58.9 | 288 | 97 | > 10 | 74.1 | – | Nc1nccc2cc(-c3ccc(C4=NC5(CC5)C(=O)N4C[C@@H]4CCN(C(=O)C5CC5)C4)cc3)ccc12 [compound 469, 5-[4-(1-Aminoisoquinolin-6-yl)phenyl]-6-{[(3R)-1-(cyclopropylcarbonyl)pyrrolidin-3-yl]methyl}-4,6-diazaspiro[2.4]hept-4-en-7-one] |
| ~67.6 | 513 | 101 | > 10 | 60.3 | – | Cc1cc(-c2ccc3c(cnn3C)c2)ccc1C1=NC2(CC2)C(=O)N1CC1CN(C(=O)C2(C)CC2)C1 [compound 207, 5-(2-methyl-4-(1-methyl-1H-indazol-5-yl)phenyl)-6-((1-(1-methylcyclopropanecarbonyl)azetidin-3-yl)methyl)-4,6-diazaspiro[2.4]hept-4-en-7-one] |
| ~871 | 2040 | 100 | > 10 | ~1860 | – | Cc1cc2cc(-c3ccc(C4=NC5(CC5)C(=O)N4C[C@@H]4CCN(C(=O)C5CC5)C4)cc3)ccc2o1 [compound 294, (R)-6-((1-(cyclopropanecarbonyl)pyrrolidin-3-yl)methyl)-5-(4-(2-methylbenzofuran-5-yl)phenyl)-4,6-diazaspiro[2.4]hept-4-en-7-one] |
| ~178 | 1000 | 100 | > 10 | 72.4 | – | Cc1c(-c2ccc(C3=NC4(CC4)C(=O)N3CC3CN(C(=O)C4CC4)C3)cc2)ccc2c1cnn2C [compound 491, 6-{[1-(Cyclopropylcarbonyl)azetidin-3-yl]methyl}-5-[4-(1,4-dimethyl-1H-indazol-5-yl)phenyl]-4,6-diazaspiro[2.4]hept-4-en-7-one] |
| 135 | 813 | 96 | > 10 | 60.3 | – | Cc1cc(C2=NC3(CC3)C(=O)N2C[C@@H]2CCN(C(=O)C3CC3)C2)ccc1-c1ccc2cc[nH]c2c1 [compound 239, (R)-5-(4-(1H-indol-6-yl)-3-methylphenyl)-6-((1-(cyclopropanecarbonyl)pyrrolidin-3-yl)methyl)-4,6-diazaspiro[2.4]hept-4-en-7-one] |
| 51.3 | 407 | 103 | > 10 | ~40.7 | – | Cn1ncc2cc(-c3ccc(C4=NC5(CC5)C(=O)N4C[C@@H]4CCN(C(=O)C5CCO5)C4)cc3)ccc21 (stereo partly drawn) [compound 204, 5-(4-(1-methyl-1H-indazol-5-yl)phenyl)-6-(((3R)-1-(oxetane-2-carbonyl)pyrrolidin-3-yl)methyl)-4,6-diazaspiro[2.4]hept-4-en-7-one] |
| ~562 | 4570 | 102 | > 10 | ~2240 | – | O=C(C1CC1)N1CC[C@@H](CN2C(=O)C3(CC3)N=C2c2ccc(-c3cccc(SC4CC4)c3)cc2F)C1 [compound 641, 6-{[(3R)-1-(Cyclopropylcarbonyl)pyrrolidin-3-yl]methyl}-5-[3′-(cyclopropylsulfanyl)-3-fluorobiphenyl-4-yl]-4,6-diazaspiro[2.4]hept-4-en-7-one] |
| 97.7 | 759 | 103 | > 10 | 18.2 | – | O=C(C1CC1)N1CC(CN2C(=O)C3(CC3)N=C2c2ccc(-c3ccc4cc(F)ccc4n3)cc2F)C1 [compound 228, 6-((1-(cyclopropanecarbonyl)azetidin-3-yl)methyl)-5-(2-fluoro-4-(6-fluoroquinolin-2-yl)phenyl)-4,6-diazaspiro[2.4]hept-4-en-7-one] |
| 1170 | 2190 | – | > 10 | 2090 | – | O=C(C1CC1)N1CC[C@H](CN2C(=O)C3(CC3)N=C2c2ccc(-c3ccc4occc4c3)cc2)C1 [compound 409, 5-[4-(1-Benzofuran-5-yl)phenyl]-6-{[(3S)-1-(cyclopropylcarbonyl)pyrrolidin-3-yl]methyl}-4,6-diazaspiro[2.4]hept-4-en-7-one] |
| 447 | 977 | – | > 10 | 537 | – | Cn1ncc2cc(-c3ccc(C4=NC5(CC5)C(=O)N4C[C@H]4CCN(C(=O)C5CC5)C4)cc3)ccc21 [compound 410, 6-{[(3S)-1-(Cyclopropylcarbonyl)pyrrolidin-3-yl]methyl}-5-[4-(1-methyl-1H-indazol-5-yl)phenyl]-4,6-diazaspiro[2.4]hept-4-en-7-one] |
| ~30.2 | 646 | – | > 10 | 25.1 | – | O=C(C1CC1)N1CC[C@@H](CN2C(=O)C3(CC3)N=C2c2ccc(-c3ccc4[nH]ncc4c3)cc2)C1 [compound 297, (R)-5-(4-(1H-indazol-5-yl)phenyl)-6-((1-(cyclopropanecarbonyl)pyrrolidin-3-yl)methyl)-4,6-diazaspiro[2.4]hept-4-en-7-one] |
| 16.6 | 437 | – | > 10 | 13.2 | – | O=C(C1CC1)N1CC[C@@H](CN2C(=O)C3(CC3)N=C2c2ccc(-c3cccc4[nH]ncc34)cc2)C1 [compound 302] |
| ~251 | 708 | 97 | > 10 | 148 | – | Cc1cc(-c2ccc3c(cnn3C)c2)ccc1C1=NC2(CC2)C(=O)N1CC1CN(C(=O)C2CCC2)C1 [compound 489] |
| 977 | 3020 | 96 | ~10 | ~676 | 380 | O=C(C1CC1)N1CC(CN2C(=O)C3(CC3)N=C2c2ccc(-c3nc4cc(Cl)ccc4s3)cc2F)C1 [compound 643, 5-[4-(5-Chloro-1,3-benzothiazol-2-yl)-2-fluorophenyl]-6-{[1-(cyclopropylcarbonyl)azetidin-3-yl]methyl}-4,6-diazaspiro[2.4]hept-4-en-7-one] |
| ~692 | 2140 | – | > 10 | ~891 | – | O=C(C1CC1)N1CC[C@@H](CN2C(=O)C3(CC3)N=C2c2ccc(-c3ccc4ncccc4c3)cc2)C1 [compound 455, 6-{[(3R)-1-(Cyclopropylcarbonyl)pyrrolidin-3-yl]methyl}-5-(4-quinolin-6-ylphenyl)-4,6-diazaspiro[2.4]hept-4-en-7-one] |
| 501 | 2340 | – | > 10 | ~398 | – | O=C(C1CC1)N1CC[C@@H](CN2C(=O)C3(CC3)N=C2c2ccc(-c3n[nH]c4ccccc34)cc2)C1 [compound 528, 6-{[(3R)-1-(Cyclopropylcarbonyl)pyrrolidin-3-yl]methyl}-5-[4-(1H-indazol-3-yl)phenyl]-4,6-diazaspiro[2.4]hept-4-en-7-one] |
